# Results taken from ChEMBL document CHEMBL3885861, “Open TG-GATES”.
# Species on record: Rattus norvegicus
# Test: Open TG-GATES - Regimen: Single
# Type: toxicity, organism-based, Sprague-Dawley
# Parameters: regimen Single, gender Male, age 6 weeks
# Conditions: in vivo, po, route gavage; for gamma-GTP / ALP / AST / CRE / DBIL / GLC / IP / K / LDH / Na / PL / RALB / TBIL / TC / TP: tissue Plasma; for Bas / Eos / Lym / MCHC / MCV / Mono / Neu / RBC / Ret / WBC: tissue Blood; for KIDNEY_L / KIDNEY_R / KIDNEY_TOTAL: tissue Kidney; for LIVER: tissue Liver
# [1] = 200 mg/kg, 3 h, dose level Middle
# [2] = 200 mg/kg, 6 h, dose level Middle
# [3] = 200 mg/kg, 9 h, dose level Middle
# [4] = 200 mg/kg, 24 h, dose level Middle
# [5] = 600 mg/kg, 3 h, dose level High
# [6] = 600 mg/kg, 6 h, dose level High
# [7] = 600 mg/kg, 9 h, dose level High
# [8] = 600 mg/kg, 24 h, dose level High
smiles,measurement,setting,value
CS(=O)(=O)O.Cc1ccc(NC(=O)c2ccc(CN3CCN(C)CC3)cc2)cc1Nc1nccc(-c2cccnc2)n1 [IMATINIB MESYLATE],gamma-GTP,"60 mg/kg, 24 h, dose level Low",0.9 IU/L
same,Bas,[1],0%
same,Eos,[1],0.6%
same,Lym,[1],76.2%
same,MCHC,[1],32.5%
same,MCV,[1],63 fL
same,Mono,[1],2.4%
same,Neu,[1],19.8%
same,RBC,[1],602.4 x10_4/ul
same,Ret,[1],10.1%
same,WBC,[1],94 x10_2/uL
same,KIDNEY_L,[1],0.8 g
same,KIDNEY_R,[1],0.9 g
same,KIDNEY_TOTAL,[1],1.7 g
same,LIVER,[1],8.5 g
same,ALP,[1],1473.2 IU/L
same,AST,[1],86.2 IU/L
same,CRE,[1],0.2 mg/dL
same,DBIL,[1],0.014 mg/dL
same,GLC,[1],185 mg/dL
same,IP,[1],8.5 mg/dL
same,K,[1],3.9 meq/L
same,LDH,[1],224.6 IU/L
same,Na,[1],142.7 meq/L
same,PL,[1],131.8 mg/dL
same,RALB,[1],4 g/dL
same,TBIL,[1],0.042 mg/dL
same,TC,[1],75.8 mg/dL
same,TP,[1],5.4 g/dL
same,gamma-GTP,[1],0.8 IU/L
same,Bas,[2],0%
same,Eos,[2],0%
same,Lym,[2],75.8%
same,MCHC,[2],32.7%
same,MCV,[2],63 fL
same,Mono,[2],1.8%
same,Neu,[2],21.6%
same,RBC,[2],605.6 x10_4/ul
same,Ret,[2],9.4%
same,WBC,[2],92.8 x10_2/uL
same,KIDNEY_L,[2],0.9 g
same,KIDNEY_R,[2],0.9 g
same,KIDNEY_TOTAL,[2],1.8 g
same,LIVER,[2],8.3 g
same,ALP,[2],1397.4 IU/L
same,AST,[2],83.8 IU/L
same,CRE,[2],0.2 mg/dL
same,DBIL,[2],0.014 mg/dL
same,GLC,[2],184.2 mg/dL
same,IP,[2],9.1 mg/dL
same,K,[2],3.8 meq/L
same,LDH,[2],187.4 IU/L
same,Na,[2],139.7 meq/L
same,PL,[2],147.6 mg/dL
same,RALB,[2],4 g/dL
same,TBIL,[2],0.046 mg/dL
same,TC,[2],81.6 mg/dL
same,TP,[2],5.4 g/dL
same,gamma-GTP,[2],0.8 IU/L
same,Bas,[3],0%
same,Eos,[3],0%
same,Lym,[3],78.6%
same,MCHC,[3],33.1%
same,MCV,[3],64.1 fL
same,Mono,[3],1%
same,Neu,[3],19.2%
same,RBC,[3],566.4 x10_4/ul
same,Ret,[3],10.1%
same,KIDNEY_L,[3],0.9 g
same,KIDNEY_R,[3],0.9 g
same,KIDNEY_TOTAL,[3],1.8 g
same,LIVER,[3],7.8 g
same,ALP,[3],1450.6 IU/L
same,AST,[3],80.6 IU/L
same,CRE,[3],0.2 mg/dL
same,DBIL,[3],0.016 mg/dL
same,GLC,[3],180 mg/dL
same,IP,[3],9 mg/dL
same,K,[3],4 meq/L
same,LDH,[3],197.8 IU/L
same,Na,[3],139.8 meq/L
same,PL,[3],145.8 mg/dL
same,RALB,[3],4.2 g/dL
same,TBIL,[3],0.062 mg/dL
same,TC,[3],82.6 mg/dL
same,TP,[3],5.5 g/dL
same,gamma-GTP,[3],0.9 IU/L
same,Bas,[4],0%
same,Eos,[4],0.6%
same,Lym,[4],81%
same,MCHC,[4],33%
same,MCV,[4],63.9 fL
same,Mono,[4],1.2%
same,Neu,[4],16.2%
same,RBC,[4],583.2 x10_4/ul
same,Ret,[4],7.9%
same,WBC,[4],97.7 x10_2/uL
same,KIDNEY_L,[4],0.9 g
same,KIDNEY_R,[4],0.9 g
same,KIDNEY_TOTAL,[4],1.8 g
same,LIVER,[4],8.6 g
same,ALP,[4],1768.2 IU/L
same,AST,[4],98.4 IU/L
same,CRE,[4],0.2 mg/dL
same,DBIL,[4],0.008 mg/dL
same,GLC,[4],180.4 mg/dL
same,IP,[4],7.5 mg/dL
same,K,[4],4 meq/L
same,LDH,[4],181.8 IU/L
same,Na,[4],143 meq/L
same,PL,[4],148.4 mg/dL
same,RALB,[4],4.1 g/dL
same,TBIL,[4],0.042 mg/dL
same,TC,[4],79 mg/dL
same,TP,[4],5.8 g/dL
same,gamma-GTP,[4],0.8 IU/L
same,Bas,[5],0%
same,Eos,[5],1%
same,Lym,[5],74.2%
same,MCHC,[5],32.7%
same,MCV,[5],63.3 fL
same,Mono,[5],2.6%
same,Neu,[5],22.2%
same,RBC,[5],595.8 x10_4/ul
same,Ret,[5],9.3%
same,WBC,[5],88.6 x10_2/uL
same,KIDNEY_L,[5],0.9 g
same,KIDNEY_R,[5],0.9 g
same,KIDNEY_TOTAL,[5],1.8 g
same,LIVER,[5],8.9 g
same,ALP,[5],1505 IU/L
same,AST,[5],86 IU/L
same,CRE,[5],0.2 mg/dL
same,DBIL,[5],0.01 mg/dL
same,GLC,[5],185.4 mg/dL
same,IP,[5],9 mg/dL
same,K,[5],3.9 meq/L
same,LDH,[5],244.6 IU/L
same,Na,[5],143.3 meq/L
same,PL,[5],138.4 mg/dL
same,RALB,[5],4.2 g/dL
same,TBIL,[5],0.044 mg/dL
same,TC,[5],79 mg/dL
same,TP,[5],5.6 g/dL
same,gamma-GTP,[5],0.8 IU/L
same,Bas,[6],0%
same,Eos,[6],0.8%
same,Lym,[6],67.8%
same,MCHC,[6],33.1%
same,MCV,[6],63.5 fL
same,Mono,[6],1.6%
same,Neu,[6],28.6%
same,RBC,[6],589.6 x10_4/ul
same,Ret,[6],8.9%
same,WBC,[6],104.9 x10_2/uL
same,KIDNEY_L,[6],0.9 g
same,KIDNEY_R,[6],0.9 g
same,KIDNEY_TOTAL,[6],1.8 g
same,LIVER,[6],7.9 g
same,ALP,[6],1661.2 IU/L
same,AST,[6],88.2 IU/L
same,CRE,[6],0.2 mg/dL
same,DBIL,[6],0.016 mg/dL
same,GLC,[6],180.4 mg/dL
same,IP,[6],8.9 mg/dL
same,K,[6],3.9 meq/L
same,LDH,[6],553.8 IU/L
same,Na,[6],140 meq/L
same,PL,[6],159.4 mg/dL
same,RALB,[6],4.1 g/dL
same,TBIL,[6],0.048 mg/dL
same,TC,[6],91.6 mg/dL
same,TP,[6],5.3 g/dL
same,gamma-GTP,[6],0.8 IU/L
same,Bas,[7],0%
same,Eos,[7],0%
same,Lym,[7],72.2%
same,MCHC,[7],32.6%
same,MCV,[7],63.6 fL
same,Mono,[7],1.6%
same,Neu,[7],25.2%
same,RBC,[7],592.6 x10_4/ul
same,Ret,[7],9.7%
same,KIDNEY_L,[7],0.9 g
same,KIDNEY_R,[7],0.9 g
same,KIDNEY_TOTAL,[7],1.8 g
same,LIVER,[7],7.8 g
same,ALP,[7],1627 IU/L
same,AST,[7],85 IU/L
same,CRE,[7],0.2 mg/dL
same,DBIL,[7],0.016 mg/dL
same,GLC,[7],183.2 mg/dL
same,IP,[7],8.8 mg/dL
same,K,[7],3.8 meq/L
same,LDH,[7],180.8 IU/L
same,Na,[7],140.1 meq/L
same,PL,[7],140.8 mg/dL
same,RALB,[7],4.2 g/dL
same,TBIL,[7],0.054 mg/dL
same,TC,[7],78 mg/dL
same,TP,[7],5.5 g/dL
same,gamma-GTP,[7],0.8 IU/L
same,Bas,[8],0%
same,Eos,[8],0.8%
same,Lym,[8],76.4%
same,MCHC,[8],33.1%
same,MCV,[8],62.5 fL
same,Mono,[8],2%
same,Neu,[8],20.4%
same,RBC,[8],584.2 x10_4/ul
same,Ret,[8],7.5%
same,WBC,[8],80.4 x10_2/uL
same,KIDNEY_L,[8],0.9 g
same,KIDNEY_R,[8],0.9 g
same,KIDNEY_TOTAL,[8],1.9 g
same,LIVER,[8],7.8 g
same,ALP,[8],1838.6 IU/L
same,AST,[8],118.4 IU/L
same,CRE,[8],0.2 mg/dL
same,DBIL,[8],0.016 mg/dL
same,GLC,[8],175.2 mg/dL
same,IP,[8],7.8 mg/dL
same,K,[8],4.1 meq/L
same,LDH,[8],227.6 IU/L
same,Na,[8],141.8 meq/L
same,PL,[8],131.4 mg/dL
same,RALB,[8],4 g/dL
same,TBIL,[8],0.072 mg/dL
same,TC,[8],72.6 mg/dL
same,TP,[8],5.6 g/dL
same,gamma-GTP,[8],0.9 IU/L
